Results reported in PubChem BioAssay AID248 (DTP/NCI, 2004).
Several values for one entry are separate records, joined by “and”; a condition that tells them apart may be missing. Identical values can stand only once. Inconclusive results and toxic doses are left out. Rule as the data show it: active = T/C of 150% or more; inactive = T/C below 125%.

System: L1210 leukemia ip in BDF1 mice, survival T/C
Assay: NCI In Vivo Anticancer Drug Screen. Data for tumor model L1210 Leukemia (intraperitoneal) in B6D2F1 (BDF1) mice
Conditions: endpoint: mean survival time, higher = longer survival
Summary of the method: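 Read-out is survival time, reported as the treated-group measurement over the vehicle-control measurement.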

[1] = dose: 100.0 mg/kg/injection, schedule: Q01DX009 (ip), vehicle: saline
[2] = dose: 100.0 mg/kg/injection, schedule: Q04DX003 (ip), vehicle: saline
[3] = dose: 200.0 mg/kg/injection, schedule: Q04DX003 (ip), vehicle: saline
[4] = dose: 400.0 mg/kg/injection, schedule: Q01DX009 (ip), vehicle: saline
[5] = dose: 400.0 mg/kg/injection, schedule: Q04DX003 (ip), vehicle: saline
[6] = dose: 100.0 mg/kg/injection, schedule: Q01DX009 (ip), vehicle: saline with Tween-80
[7] = dose: 100.0 mg/kg/injection, schedule: Q04DX003 (ip), vehicle: saline with Tween-80
[8] = dose: 200.0 mg/kg/injection, schedule: Q01DX009 (ip), vehicle: saline with Tween-80
[9] = dose: 200.0 mg/kg/injection, schedule: Q04DX003 (ip), vehicle: saline with Tween-80
[10] = dose: 400.0 mg/kg/injection, schedule: Q01DX009 (ip), vehicle: saline with Tween-80
[11] = dose: 400.0 mg/kg/injection, schedule: Q04DX003 (ip), vehicle: saline with Tween-80
[12] = dose: 50.0 mg/kg/injection, schedule: Q01DX009 (ip), vehicle: saline
[13] = dose: 200.0 mg/kg/injection, schedule: Q01DX009 (ip), vehicle: saline
[14] = dose: 75.0 mg/kg/injection, schedule: Q01DX001 (ip), vehicle: saline
[15] = dose: 150.0 mg/kg/injection, schedule: Q01DX001 (ip), vehicle: saline
[16] = dose: 100.0 mg/kg/injection, schedule: Q01DX001 (ip), vehicle: carboxymethylcellulose (CMC)

Measured: T/C

Cc1ccc(CO)cc1
inactive: [1] 97 % of control | [2] 106 % of control | [3] 114 % of control | [4] 92 % of control | [5] 106 % of control

CCOc1c(N2CCOCC2)c(=O)c1=O
inactive: [6] 103 % of control | [7] 93 % of control | [8] 97 % of control | [9] 101 % of control | [10] 91 % of control | [11] 93 % of control

COc1ccc(CC[N+]2=Cc3cc(OC)c(OC)cc3CC2)cc1OC
inactive: [12] 97 % of control | [1] 105 % of control | [2] 97 % of control | [3] 101 % of control

NCCN1CCN=C1C1=NCCN1CCN
inactive: [1] 98 % of control | [2] 100 % of control | [13] 93 % of control | [3] 98 % of control | [4] 98 % of control | [5] 96 % of control

NC(=O)Oc1ccccc1
inactive: dose: 100.0 mg/kg/injection, schedule: Q01DX001 (ip), vehicle: saline 98 % of control | [1] 102 % of control | [2] 95 % of control | dose: 200.0 mg/kg/injection, schedule: Q01DX001 (ip), vehicle: saline 98 % of control | [13] 111 % of control | [3] 98 % of control | dose: 400.0 mg/kg/injection, schedule: Q01DX001 (ip), vehicle: saline 96 % of control | [4] 120 % of control | [5] 103 % of control

O=C1CC(=O)Nc2ccccc2N1
inactive: [12] 86 % of control | [1] 86 % of control | [2] 98 % of control | [13] 96 % of control | [3] 101 % of control | [5] 101 % of control

O=[N+]([O-])c1ccc(Oc2ccc(Br)cc2)c([N+](=O)[O-])c1
inactive: dose: 100.0 mg/kg/injection, schedule: Q04DX002 (ip), vehicle: Klucel (hydroxypropylcellulose) (HPC) 103 % of control | dose: 200.0 mg/kg/injection, schedule: Q04DX002 (ip), vehicle: Klucel (hydroxypropylcellulose) (HPC) 93 % of control | dose: 400.0 mg/kg/injection, schedule: Q04DX002 (ip), vehicle: Klucel (hydroxypropylcellulose) (HPC) 97 % of control

O=C(O)c1ccc2c(c1Sc1ccccc1)C(=O)c1ccccc1C2=O
inactive: [14] 104 % of control | [15] 107 % of control | dose: 300.0 mg/kg/injection, schedule: Q01DX001 (ip), vehicle: saline 91 % of control

OCC(O)C(O)C(O)C(SCc1ccccc1)SCc1ccccc1 (stereo not given)
inactive: dose: 75.0 mg/kg/injection, schedule: Q04DX002 (ip), vehicle: saline with Tween-80 93 % of control | dose: 150.0 mg/kg/injection, schedule: Q04DX002 (ip), vehicle: saline with Tween-80 117 % of control | dose: 300.0 mg/kg/injection, schedule: Q04DX002 (ip), vehicle: saline with Tween-80 101 % of control

CC[C@@H](C(=O)[C@@H](C)[C@@H](O)[C@H](C)CCc1ccc(C)c(O)c1C(=O)O)[C@H]1O[C@](CC)([C@H]2CC[C@](O)(CC)[C@H](C)O2)C[C@@H]1C
inactive: dose: 3.12 mg/kg/injection, schedule: Q01DX009 (ip), vehicle: Klucel (hydroxypropylcellulose) (HPC) 93 % of control | dose: 6.25 mg/kg/injection, schedule: Q01DX009 (ip), vehicle: Klucel (hydroxypropylcellulose) (HPC) 96 % of control | dose: 12.5 mg/kg/injection, schedule: Q01DX009 (ip), vehicle: Klucel (hydroxypropylcellulose) (HPC) 94 % of control | dose: 25.0 mg/kg/injection, schedule: Q01DX009 (ip), vehicle: Klucel (hydroxypropylcellulose) (HPC) 94 % of control

N#CSCCN1C(=O)C2C3CCC(O3)C2C1=O (stereo not given)
inactive: dose: 6.25 mg/kg/injection, schedule: Q04DX002 (ip), vehicle: saline with Tween-80 94 % of control | dose: 12.5 mg/kg/injection, schedule: Q04DX002 (ip), vehicle: saline with Tween-80 97 % of control

CCOP(N)(=S)OCC
inactive: [14] 102 % of control | [15] 102 % of control

COc1cccc2c1OC1(N3CCOCC3)CCCCC1C2C[N+](=O)[O-] (stereo not given)
inactive: dose: 100.0 mg/kg/injection, schedule: Q01DX009 (ip), vehicle: Klucel (hydroxypropylcellulose) (HPC) 97 % of control | dose: 200.0 mg/kg/injection, schedule: Q01DX009 (ip), vehicle: Klucel (hydroxypropylcellulose) (HPC) 105 % of control | dose: 400.0 mg/kg/injection, schedule: Q01DX009 (ip), vehicle: Klucel (hydroxypropylcellulose) (HPC) 94 % of control

CN(C)c1ccc(C(=O)O)cn1
inactive: [6] 96 % of control | [2] 100 % of control | [8] 105 % of control | [3] 100 % of control | [10] 102 % of control | [5] 100 % of control

CCCCCCNC(C)=O
inactive: dose: 12.5 mg/kg/injection, schedule: Q01DX009 (ip), vehicle: saline 92 % of control | dose: 25.0 mg/kg/injection, schedule: Q01DX009 (ip), vehicle: saline 118 % of control | [12] 97 % of control and 90 % of control | [1] 90 % of control | [7] 95 % of control | [13] 97 % of control | [9] 87 % of control

NC1=NCCCN1
inactive: [7] 101 % of control

COc1ccccc1OC(=O)c1ccccc1OC(=O)c1cccnc1
inactive: dose: 100.0 mg/kg/injection, schedule: Q04DX002 (ip), vehicle: saline with Tween-80 101 % of control | dose: 200.0 mg/kg/injection, schedule: Q04DX002 (ip), vehicle: saline with Tween-80 96 % of control | dose: 400.0 mg/kg/injection, schedule: Q04DX002 (ip), vehicle: saline with Tween-80 89 % of control

CCCCS/C=C1/Sc2cc[nH]c2C1=O
inactive: dose: 100.0 mg/kg/injection, schedule: Q04DX003 (ip), vehicle: Klucel (hydroxypropylcellulose) (HPC) 96 % of control | dose: 200.0 mg/kg/injection, schedule: Q04DX003 (ip), vehicle: Klucel (hydroxypropylcellulose) (HPC) 96 % of control | dose: 400.0 mg/kg/injection, schedule: Q04DX003 (ip), vehicle: Klucel (hydroxypropylcellulose) (HPC) 94 % of control

O=S1(=O)C2CCCC1C(Cl)CC2 (stereo not given)
inactive: dose: 15.0 mg/kg/injection, schedule: Q01DX001 (ip), vehicle: carboxymethylcellulose (CMC) 100 % of control

ClCCCCC(Cl)(Cl)Cl
inactive: dose: 75.0 mg/kg/injection, schedule: Q01DX009 (ip), vehicle: saline 93 % of control | [2] 102 % of control | dose: 150.0 mg/kg/injection, schedule: Q01DX009 (ip), vehicle: saline 91 % of control | [3] 98 % of control | dose: 300.0 mg/kg/injection, schedule: Q01DX009 (ip), vehicle: saline 90 % of control | [5] 108 % of control

O=C(CCCl)Oc1ccc(Cl)cc1
inactive: [7] 92 % of control | [9] 93 % of control | [11] 100 % of control

CCOc1cc(C=Nc2cc(Br)c(O)c(Br)c2)ccc1N(CCCl)CCCl
inactive: dose: 13.3 mg/kg/injection, schedule: Q01DX009 (ip), vehicle: carboxymethylcellulose (CMC) 108 % of control | dose: 20.0 mg/kg/injection, schedule: Q01DX009 (ip), vehicle: carboxymethylcellulose (CMC) 100 % of control | dose: 30.0 mg/kg/injection, schedule: Q01DX009 (ip), vehicle: carboxymethylcellulose (CMC) 97 % of control | dose: 44.0 mg/kg/injection, schedule: Q01DX001 (ip), vehicle: carboxymethylcellulose (CMC) 123 % of control | [16] 123 % of control | dose: 150.0 mg/kg/injection, schedule: Q01DX001 (ip), vehicle: carboxymethylcellulose (CMC) 122 % of control

O=[N+]([O-])c1cnc(/C=C/c2ccccc2)nc1
inactive: [16] 97 % of control | dose: 200.0 mg/kg/injection, schedule: Q01DX001 (ip), vehicle: carboxymethylcellulose (CMC) 95 % of control | dose: 400.0 mg/kg/injection, schedule: Q01DX001 (ip), vehicle: carboxymethylcellulose (CMC) 89 % of control
